# Experimental data taken from paper PMC11581222, “Inhibition of CCl4-induced liver inflammation and fibrosis by a NEU3 inhibitor” (PLOS ONE, 2024).
# Where two headings read alike, the source gives them in different places.
# Legend:
# [1] = test system: GABAA Flunitrazepam; experiment: Eurofins radioligand receptor binding inhibition; conditions: 10 μM 2AP
# [2] = biological target: Adrenergic α1B (Rattus norvegicus, UniProt P15823); experiment: Eurofins radioligand receptor binding inhibition; conditions: 10 μM 2AP
# [3] = biological target: Nicotinic Acetylcholine α1, Bungarotoxin (Homo sapiens, UniProt P02708+P07510+Q07001); experiment: biochemical; format: binding; parameters: dose or concentration left out as unconfirmed
# [4] = test system: bleomycin-induced pulmonary fibrosis; conditions: injections; male mice; cited from earlier work
# [5] = biological target: Histamine H1 (Homo sapiens, UniProt P35367); experiment: Eurofins radioligand receptor binding inhibition; conditions: 10 μM 2AP
# [6] = biological target: Adenosine A2A (Homo sapiens, UniProt P29274); experiment: Eurofins radioligand receptor binding inhibition; conditions: 10 μM 2AP
# [7] = biological target: Prostanoid EP4 (Homo sapiens, UniProt P35408); experiment: Eurofins radioligand receptor binding inhibition; conditions: 10 μM 2AP
# [8] = biological target: hERG potassium channel (Homo sapiens, UniProt Q12809); experiment: Eurofins radioligand receptor binding inhibition; conditions: 10 μM 2AP
# [9] = test system: Potassium Channel [KATP]; experiment: Eurofins radioligand receptor binding inhibition; conditions: 10 μM 2AP
# [10] = test system: mouse recombinant NEU3; parameters: method as in PMID 33144389; conditions: pH 6.9, read-out: IC50, inhibition of release of active TGF-β1 from human latent TGF-β1; cited from earlier work
# [11] = biological target: Norepinephrine (NET) (Homo sapiens, UniProt P23975); experiment: Eurofins radioligand receptor binding inhibition; conditions: 10 μM 2AP
# Description: (§1) CYP450 enzymes and a panel of receptors were assessed for inhibition by 10 μM 2AP using HitProfilingScreen + CYP450 LeadHunter Panel at Eurofins (Eurofins Panlabs Discovery Services, New Taipei City, Taiwan). Briefly, human recombinant CYP450 enzymes were preincubated at 37°C for 15 minutes with 10 μM 2AP. Enzyme activity was assessed by cleavage of the CYP450 fluorogenic substrates dibenzyl fluorescein (aromatase / CYP19A1, CYP2C8), 3-Cyano-7-ethoxycoumarin (CYP1A2, CYP2B6, CYP2C19, CYP2C9, and CYP2D6), or 7-Benzyloxy-4-(trifluoromethyl)-coumarin (CYP3A4), as described previously. Inhibition of receptor binding was assessed using a panel of receptors expressed on cell lines or using tissue extracts and preincubated at 25°C for 30–120 minutes with 10 μM 2AP. Cells or tissue extracts were then incubated with radiolabeled specific ligands a described (https://www.eurofinsdiscovery.com/catalog/hitprofilingscreen-cyp450-leadhunter-panel-tw/PP115) and inhibition of binding was reported (S2 Table).
# [12] = biological target: Serotonin (5-Hydroxytryptamine) 5-HT2B (Homo sapiens, UniProt P41595); experiment: Eurofins radioligand receptor binding inhibition; conditions: 10 μM 2AP
# Description: as §1
# [13] = biological target: CYP3A4 (Homo sapiens, UniProt P08684); experiment: Eurofins CYP450 inhibition, 7-Benzyloxy-4-(trifluoromethyl)-coumarin substrate; format: in vitro ADME; conditions: recombinant CYP3A4, probe 7-benzyloxy-4-(trifluoromethyl)-coumarin, 10 μM 2AP
# [14] = biological target: Dopamine D1 (Homo sapiens, UniProt P21728); experiment: Eurofins radioligand receptor binding inhibition; parameters: dose or concentration left out as unconfirmed
# [15] = biological target: CYP2B6 (Homo sapiens, UniProt P20813); experiment: Eurofins CYP450 inhibition, 3-Cyano-7-ethoxycoumarin substrate; format: in vitro ADME; conditions: recombinant CYP2B6, probe 3-cyano-7-ethoxycoumarin, 10 μM 2AP
# [16] = test system: aromatase/CYP19A1, CYP2C8, CYP1A2, CYP2B6, CYP2C19, CYP2C9, CYP2D6 and CYP3A4 (mean over 8 enzymes); experiment: Eurofins CYP450 panel, mean over 8 enzymes; format: in vitro ADME; conditions: human, recombinant CYP450 enzymes; 10 μM 2AP; mean over 8 CYP450 enzymes; read-out: percent inhibition of CYP450 enzymes, mean ± SD, n = 8
# [17] = test system: 28 receptors; experiment: Eurofins panel of 28 receptors, inhibition of binding; conditions: 10 μM 2AP
# [18] = biological target: Sigma σ1 (Homo sapiens, UniProt Q99720); experiment: Eurofins radioligand receptor binding inhibition; conditions: 10 μM 2AP
# [19] = biological target: CYP2C8 (Homo sapiens, UniProt P10632); experiment: Eurofins CYP450 inhibition, dibenzyl fluorescein substrate; format: in vitro ADME; conditions: recombinant CYP2C8, probe dibenzyl fluorescein, 10 μM 2AP
# [20] = biological target: CYP2D6 (Homo sapiens, UniProt P10635); experiment: Eurofins CYP450 inhibition, 3-Cyano-7-ethoxycoumarin substrate; format: in vitro ADME; conditions: recombinant CYP2D6, probe 3-cyano-7-ethoxycoumarin, 10 μM 2AP
# [21] = test system: human recombinant NEU3; parameters: method as in PMID 33144389; conditions: human recombinant NEU3; pH 6.9; read-out: IC50, inhibition of release of active TGF-β1 from human latent TGF-β1; cited from earlier work
# [22] = biological target: Adenosine A1 (Homo sapiens, UniProt P30542); experiment: Eurofins radioligand receptor binding inhibition; parameters: dose or concentration left out as unconfirmed
# [23] = biological target: CYP2C9 (Homo sapiens, UniProt P11712); experiment: Eurofins CYP450 inhibition, 3-Cyano-7-ethoxycoumarin substrate; format: in vitro ADME; conditions: recombinant CYP2C9, probe 3-cyano-7-ethoxycoumarin, 10 μM 2AP
# [24] = test system: CCl4-induced liver inflammation and fibrosis; conditions: for body weight, CCl4-induced weight loss: 1 mg/kg 2AP i.p. daily from day 21
# [25] = biological target: CYP2C19 (Homo sapiens, UniProt P33261); experiment: Eurofins CYP450 inhibition, 3-Cyano-7-ethoxycoumarin substrate; format: in vitro ADME; conditions: recombinant CYP2C19, probe 3-cyano-7-ethoxycoumarin, 10 μM 2AP
# [26] = CCl4+2AP vs CCl4, male and female mice
# [27] = treatments vs control (oil) mice
# Sequence of CYP2C9 (P11712 whole entry): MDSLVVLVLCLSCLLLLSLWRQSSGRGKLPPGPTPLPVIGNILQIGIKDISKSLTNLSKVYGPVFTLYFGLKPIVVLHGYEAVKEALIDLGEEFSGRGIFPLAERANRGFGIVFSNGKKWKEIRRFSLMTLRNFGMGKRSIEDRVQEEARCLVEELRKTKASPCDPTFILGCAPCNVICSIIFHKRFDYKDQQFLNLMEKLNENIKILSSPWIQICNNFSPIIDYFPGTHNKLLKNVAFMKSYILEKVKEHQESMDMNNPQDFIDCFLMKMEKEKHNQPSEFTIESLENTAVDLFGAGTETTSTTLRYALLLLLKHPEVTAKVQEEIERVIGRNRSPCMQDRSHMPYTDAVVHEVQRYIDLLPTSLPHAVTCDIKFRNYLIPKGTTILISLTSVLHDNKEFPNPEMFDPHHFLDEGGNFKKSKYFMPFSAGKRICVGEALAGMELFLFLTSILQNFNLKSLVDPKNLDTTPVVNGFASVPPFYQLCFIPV
# Sequence of Norepinephrine (NET) (P23975 whole entry): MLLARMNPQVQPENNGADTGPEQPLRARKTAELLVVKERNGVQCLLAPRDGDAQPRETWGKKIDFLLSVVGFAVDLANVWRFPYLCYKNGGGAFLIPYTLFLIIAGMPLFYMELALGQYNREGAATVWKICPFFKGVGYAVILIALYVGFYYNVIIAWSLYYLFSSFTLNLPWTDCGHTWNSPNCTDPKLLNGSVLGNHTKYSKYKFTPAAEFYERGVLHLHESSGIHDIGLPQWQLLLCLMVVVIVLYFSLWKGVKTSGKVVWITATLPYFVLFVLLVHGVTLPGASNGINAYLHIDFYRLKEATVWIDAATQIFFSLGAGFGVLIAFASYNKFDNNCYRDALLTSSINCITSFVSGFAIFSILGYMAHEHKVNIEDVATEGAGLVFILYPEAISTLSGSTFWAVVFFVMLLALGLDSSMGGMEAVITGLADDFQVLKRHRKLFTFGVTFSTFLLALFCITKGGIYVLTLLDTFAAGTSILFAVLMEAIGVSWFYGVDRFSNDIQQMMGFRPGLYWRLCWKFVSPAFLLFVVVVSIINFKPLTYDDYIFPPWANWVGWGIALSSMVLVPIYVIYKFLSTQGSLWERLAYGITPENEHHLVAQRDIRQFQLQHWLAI
# Sequence of CYP2C19 (P33261 whole entry): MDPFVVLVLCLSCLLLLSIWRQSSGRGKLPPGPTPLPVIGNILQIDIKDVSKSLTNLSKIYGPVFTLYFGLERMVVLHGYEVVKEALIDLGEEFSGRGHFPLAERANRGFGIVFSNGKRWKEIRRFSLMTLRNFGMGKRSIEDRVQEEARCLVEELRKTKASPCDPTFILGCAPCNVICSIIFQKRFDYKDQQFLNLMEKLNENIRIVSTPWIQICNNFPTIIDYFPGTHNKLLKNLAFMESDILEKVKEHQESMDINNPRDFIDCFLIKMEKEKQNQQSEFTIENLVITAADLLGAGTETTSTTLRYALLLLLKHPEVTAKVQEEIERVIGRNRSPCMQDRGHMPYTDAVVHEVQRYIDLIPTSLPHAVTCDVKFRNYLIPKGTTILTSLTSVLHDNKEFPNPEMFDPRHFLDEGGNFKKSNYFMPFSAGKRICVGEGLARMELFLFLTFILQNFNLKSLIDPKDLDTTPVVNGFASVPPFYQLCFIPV
# Sequence of hERG potassium channel (Q12809 whole entry): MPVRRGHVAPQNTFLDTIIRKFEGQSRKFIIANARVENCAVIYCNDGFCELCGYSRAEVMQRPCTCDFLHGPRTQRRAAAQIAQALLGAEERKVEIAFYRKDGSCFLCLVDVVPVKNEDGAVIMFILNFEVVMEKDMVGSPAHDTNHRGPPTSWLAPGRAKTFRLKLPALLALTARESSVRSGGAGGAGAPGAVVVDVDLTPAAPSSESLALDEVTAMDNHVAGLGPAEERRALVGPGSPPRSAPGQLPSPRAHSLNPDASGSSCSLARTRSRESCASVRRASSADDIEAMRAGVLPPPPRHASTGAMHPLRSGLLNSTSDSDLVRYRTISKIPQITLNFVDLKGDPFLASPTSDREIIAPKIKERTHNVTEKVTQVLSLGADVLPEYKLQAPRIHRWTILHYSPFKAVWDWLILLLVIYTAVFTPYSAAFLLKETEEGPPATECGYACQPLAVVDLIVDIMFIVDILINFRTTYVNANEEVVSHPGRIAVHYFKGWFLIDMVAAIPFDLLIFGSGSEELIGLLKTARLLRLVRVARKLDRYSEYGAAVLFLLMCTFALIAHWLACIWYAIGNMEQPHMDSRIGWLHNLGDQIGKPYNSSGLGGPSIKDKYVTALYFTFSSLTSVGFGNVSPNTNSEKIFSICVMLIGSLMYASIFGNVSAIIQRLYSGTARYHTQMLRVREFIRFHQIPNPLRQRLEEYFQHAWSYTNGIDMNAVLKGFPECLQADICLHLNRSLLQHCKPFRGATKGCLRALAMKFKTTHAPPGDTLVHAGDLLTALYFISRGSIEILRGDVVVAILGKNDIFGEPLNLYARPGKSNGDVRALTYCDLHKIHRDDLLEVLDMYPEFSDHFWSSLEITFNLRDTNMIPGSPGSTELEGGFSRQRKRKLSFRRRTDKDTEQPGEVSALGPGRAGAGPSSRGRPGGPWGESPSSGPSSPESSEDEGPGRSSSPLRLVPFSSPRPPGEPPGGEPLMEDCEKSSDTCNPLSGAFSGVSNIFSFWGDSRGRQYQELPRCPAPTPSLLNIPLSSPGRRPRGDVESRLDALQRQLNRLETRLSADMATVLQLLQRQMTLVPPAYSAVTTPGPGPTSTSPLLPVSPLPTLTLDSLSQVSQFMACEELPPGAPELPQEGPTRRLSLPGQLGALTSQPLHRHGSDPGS
# Sequence of CYP2C8 (P10632 whole entry): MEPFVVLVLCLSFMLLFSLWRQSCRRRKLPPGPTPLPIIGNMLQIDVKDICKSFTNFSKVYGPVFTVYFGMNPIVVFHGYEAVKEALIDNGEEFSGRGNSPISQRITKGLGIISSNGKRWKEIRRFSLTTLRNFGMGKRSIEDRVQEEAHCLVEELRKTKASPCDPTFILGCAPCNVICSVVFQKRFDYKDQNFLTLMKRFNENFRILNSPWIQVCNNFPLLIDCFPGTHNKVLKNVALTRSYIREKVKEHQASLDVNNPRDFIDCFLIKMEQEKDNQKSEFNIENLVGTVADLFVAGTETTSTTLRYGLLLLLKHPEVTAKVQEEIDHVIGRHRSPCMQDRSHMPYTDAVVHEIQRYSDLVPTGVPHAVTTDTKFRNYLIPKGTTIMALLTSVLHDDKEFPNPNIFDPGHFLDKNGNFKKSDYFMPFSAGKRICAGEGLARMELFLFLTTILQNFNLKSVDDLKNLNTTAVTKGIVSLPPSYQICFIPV
# Sequence of Serotonin (5-Hydroxytryptamine) 5-HT2B (P41595 whole entry): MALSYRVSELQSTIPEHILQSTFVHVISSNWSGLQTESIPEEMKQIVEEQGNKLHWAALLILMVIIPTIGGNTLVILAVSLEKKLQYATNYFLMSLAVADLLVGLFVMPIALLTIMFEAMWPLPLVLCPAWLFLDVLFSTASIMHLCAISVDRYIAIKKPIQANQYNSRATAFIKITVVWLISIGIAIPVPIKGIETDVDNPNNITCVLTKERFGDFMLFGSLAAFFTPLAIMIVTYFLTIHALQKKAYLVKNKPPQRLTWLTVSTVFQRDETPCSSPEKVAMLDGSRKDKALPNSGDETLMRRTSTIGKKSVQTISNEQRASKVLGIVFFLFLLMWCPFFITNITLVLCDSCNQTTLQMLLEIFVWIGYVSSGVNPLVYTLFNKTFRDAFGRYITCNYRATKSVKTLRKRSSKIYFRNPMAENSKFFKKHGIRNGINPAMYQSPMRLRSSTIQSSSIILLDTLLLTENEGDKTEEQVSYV
# Sequence of CYP3A4 (P08684 whole entry): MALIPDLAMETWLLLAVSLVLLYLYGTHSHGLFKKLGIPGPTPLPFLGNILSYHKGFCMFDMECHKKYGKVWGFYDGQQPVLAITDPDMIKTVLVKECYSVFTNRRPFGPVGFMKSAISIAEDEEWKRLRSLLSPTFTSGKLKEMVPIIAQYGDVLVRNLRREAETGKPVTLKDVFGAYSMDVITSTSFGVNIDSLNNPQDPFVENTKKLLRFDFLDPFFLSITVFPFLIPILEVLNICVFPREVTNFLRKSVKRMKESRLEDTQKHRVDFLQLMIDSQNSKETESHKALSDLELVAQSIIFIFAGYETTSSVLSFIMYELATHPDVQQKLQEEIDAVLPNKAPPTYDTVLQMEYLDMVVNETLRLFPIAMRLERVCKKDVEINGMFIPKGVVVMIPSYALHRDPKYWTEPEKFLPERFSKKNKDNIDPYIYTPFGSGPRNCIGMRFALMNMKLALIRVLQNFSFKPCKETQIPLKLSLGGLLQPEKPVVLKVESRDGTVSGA
# Sequence of Histamine H1 (P35367 whole entry): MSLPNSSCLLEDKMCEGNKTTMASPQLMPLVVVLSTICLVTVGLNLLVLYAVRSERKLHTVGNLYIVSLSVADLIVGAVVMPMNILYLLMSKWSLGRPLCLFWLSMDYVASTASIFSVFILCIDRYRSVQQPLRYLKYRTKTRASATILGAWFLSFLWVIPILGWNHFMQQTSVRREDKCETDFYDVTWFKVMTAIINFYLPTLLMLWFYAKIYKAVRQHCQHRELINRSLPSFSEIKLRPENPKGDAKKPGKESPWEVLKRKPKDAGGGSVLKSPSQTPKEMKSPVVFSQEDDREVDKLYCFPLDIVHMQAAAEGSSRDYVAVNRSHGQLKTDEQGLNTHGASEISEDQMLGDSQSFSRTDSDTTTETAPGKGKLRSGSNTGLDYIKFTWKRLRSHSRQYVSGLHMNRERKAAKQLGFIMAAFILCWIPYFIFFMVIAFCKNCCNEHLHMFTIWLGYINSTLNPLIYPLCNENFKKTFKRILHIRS
# Sequence of Sigma σ1 (Q99720 whole entry): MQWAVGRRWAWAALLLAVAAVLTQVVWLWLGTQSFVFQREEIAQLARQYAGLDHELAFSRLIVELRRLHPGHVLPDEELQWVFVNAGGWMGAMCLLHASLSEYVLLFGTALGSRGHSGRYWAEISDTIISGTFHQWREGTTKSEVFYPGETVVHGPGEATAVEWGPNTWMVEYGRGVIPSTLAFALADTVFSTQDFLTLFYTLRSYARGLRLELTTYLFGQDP
smiles,measurement,setting,value
"CC(=O)c1ccccn1 [2AP, 2-acetyl pyridine]",% Inhibition,[1],-2%
same,inhibition at 10 µM,[2],2%
same,inhibition,[3],5%
same,pulmonary fibrosis,[4],attenuate bleomycin-induced pulmonary fibrosis
same,inhibition at 10 µM,[5],8%
same,inhibition at 10 µM,[6],0%
same,inhibition at 10 µM,[7],7%
same,inhibition at 10 µM,[8],4%
same,% Inhibition,[9],-11%
same,IC50,[10],800 ± 170 nM
same,inhibition at 10 µM,[11],7%
same,inhibition at 10 µM,[12],12%
same,inhibition at 10 µM,[13],-2%
same,inhibition,[14],-5%
same,inhibition at 10 µM,[15],0%
same,inhibition at 10 µM,[16],1.5 ± 1.2%
same,inhibitory effect on an additional 28 receptors,[17],no inhibitory effect
same,inhibition at 10 µM,[18],13%
same,inhibition at 10 µM,[19],0%
same,inhibition at 10 µM,[20],2%
same,IC50,[21],40 ± 6 nM
same,inhibition,[22],10%
same,inhibition at 10 µM,[23],1%
same,toxic effects of daily injections,"[24]; 1 mg/kg 2AP i.p. daily, days 21-42",did not appear to have any obvious toxic effects
same,"body weight, CCl4-induced weight loss","[24]; CCl4+2AP vs CCl4, female mice",response of female mice to 2AP treatment
same,"body weight, CCl4-induced weight loss","[24]; CCl4+2AP vs CCl4, male and female combined, days 39 and 40",less weight loss
same,"body weight, CCl4-induced weight loss","[24]; CCl4+2AP vs CCl4, male mice",not apparent in male mice
same,number of S100A8/MRP8 positive cells (neutrophils) in liver,"[24]; CCl4+2AP vs CCl4, female mice",reduction in the number of S100A8/MRP8 positive cells
same,liver NEU3 staining,[24]; [26],attenuated the CCl4-induced NEU3 staining
same,"liver desialylation, PNA lectin staining",[24]; [26],reduced PNA staining
same,"liver fibrosis, picrosirius red staining",[24]; [26],decreased picrosirius red staining
same,"liver inflammation, vessels with accumulation of immune cells (H&E)",[24]; [26],attenuated the CCl4 induced inflammation
same,number of Mac2 positive cells around liver vessels,[24]; [26],decreased the number of Mac2 positive cells in the vessel areas
same,number of Mac2 positive cells in liver,[24]; [26],decreased the number of Mac2 positive cells
same,"steatosis, oil red O staining of liver",[24]; [26],no significant differences in oil red O staining
same,liver hydroxyproline levels,"[24]; CCl4+2AP vs CCl4, male mice",reduced hydroxyproline levels
same,"kidney, spleen, heart, or brown fat weights at day 42","[24]; mouse, in vivo",no significant effect
same,liver NEU3 staining,"[24]; mouse, in vivo",no significant differences in NEU3 staining
same,"liver desialylation, PNA lectin staining","[24]; mouse, in vivo",did not significantly change PNA staining
same,liver hydroxyproline levels,"[24]; mouse, in vivo",no significant differences in hydroxyproline levels
same,liver weight at day 42,"[24]; mouse, in vivo",higher liver weights
same,lung weight at day 42,"[24]; mouse, in vivo",increased lung weights
same,number of Mac2 positive cells around liver vessels,"[24]; mouse, in vivo",no significant differences in the number of Mac2 positive cells in vessel areas
same,number of Mac2 positive cells in liver,"[24]; mouse, in vivo",no significant differences in the number of Mac2 positive cells
same,number of S100A8 positive cells in liver,"[24]; mouse, in vivo",no significant differences in the number of S100A8 positive cells
same,overt effects on mice (body weight over 42 days),"[24]; mouse, in vivo",no overt effects on the mice
same,"steatosis, oil red O staining of liver","[24]; mouse, in vivo",no significant change in the oil red O staining
same,white fat weight at day 42,"[24]; mouse, in vivo",reduced white fat
same,number of CD3 T cells in liver,[24]; [27],no significant treatment-induced difference
same,number of CLEC4F positive Kupffer cells in liver,[24]; [27],no significant treatment-induced difference
same,number of Mac2 positive cells in parenchymal areas of the liver,[24]; treatments vs control mice,no significant treatment-induced difference
same,inhibition at 10 µM,[25],3%
